Measurements: patent US9695155B2, “Herbicidal substituted pyrimidinyloxy benzene compounds” (E. I. DU PONT DE NEMOURS AND COMPANY, priority 2013, dated 2017)

Tests used:
oilseed rape = test: Test C preemergence; type: in vivo, Brassica napus
Outline: (§1)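 Plants were kept under greenhouse conditions for 13–15 days following spray. Pre-emergent application went to soil (loam–sand), post-emergent to foliage at 1–4 leaves. Evaluation: visual, percent control against untreated checks.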

waterhemp = test: Test C preemergence; type: in vivo, Amaranthus rudis
Outline: as §1

Heteranthera limosa = test: Test B flooded paddy test; type: in vivo; conditions: Flood, 250 g ai/ha, 0 to 100 scale where 0 is no effect and 100 is complete control
Outline: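 Evaluation is visual, against untreated controls, 13 to 15 days after treatment. Before treatment, plants reached the 2-leaf stage; pots were then flooded 3 cm deep, compound was added to the water, and that level was maintained. Ratings run 0 to 100, with 100 meaning complete control.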

ragweed [1] = test: Test A preemergence; type: in vivo, Ambrosia elatior; conditions: for Plant response rating, Ragweed: 125 g ai/ha; for Ragweed plant response rating: 500 g ai/ha
Outline: (§2)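 Injury scores run from 0, no effect, to 100, complete control, judged by eye against untreated plants roughly 10 days after treatment. Chemicals carried a surfactant in a non-phytotoxic solvent and went onto loam–sand soil preemergence or onto one- to two-leaf seedlings postemergence.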

giant foxtail [2] = test: Test C preemergence; type: in vivo, Setaria faberii
Outline: as §1

galium = test: Test C postemergence; type: in vivo, Galium aparine
Outline: as §1

corn = test: Test C preemergence; type: in vivo, Zea mays
Outline: as §1

giant foxtail [3] = test: Test A postemergence; type: in vivo, Setaria faberii; conditions: 0 to 100 scale where 0 is no effect and 100 is complete control
Outline: as §2

johnsongrass = test: Test C postemergence; type: in vivo, Sorghum halepense
Outline: as §1

ragweed [4] = test: Test C postemergence; type: in vivo, Ambrosia elatior
Outline: as §1

[5] = 0 to 100 scale where 0 is no effect and 100 is complete control
[6] = 16 g ai/ha, preemergence, scale 0 to 100 (0 no effect, 100 complete control)
[7] = 62 g ai/ha, preemergence, scale 0 (no effect) to 100 (complete control)
[8] = 125 g ai/ha, preemergence, scale 0 (no effect) to 100 (complete control)
[9] = Preemergence, 31 g ai/ha, scale 0 to 100, 0 no effect, 100 complete control
[10] = 0 to 100 scale, 0 no effect, 100 complete control, approx. 10 days
[11] = 16 g ai/ha, postemergence, visual rating, scale 0 to 100 (0 no effect, 100 complete control), 13 to 15 days
[12] = Postemergence, 31 g ai/ha, scale 0 to 100 (0 no effect, 100 complete control), 13 to 15 days
[13] = Postemergence, 62 g ai/ha, scale 0 to 100 (0 no effect, 100 complete control)

## FC(F)(F)Sc1cnn(-c2ccccc2Oc2ncc(Cl)cn2)c1 [Compound 132, 5-chloro-2-[2-[4-(trifluoromethylthio)-1H-pyrazol-1-yl]phenoxy]pyrimidine]
Oilseed rape; Brassica napus, pre-emergence, 16 g ai/ha, preemergence, scale 0 to 100 (0 no effect, 100 complete control), read-out: Oilseed Rape plant response rating
  plant injury at 16 g/ha: 20%
Oilseed rape; Brassica napus, pre-emergence, 62 g ai/ha, preemergence, scale 0 (no effect) to 100 (complete control), read-out: Oilseed Rape plant response rating
  plant injury at 62 g/ha: 100%
Oilseed rape; Brassica napus, pre-emergence, 125 g ai/ha, preemergence, scale 0 (no effect) to 100 (complete control), read-out: Oilseed Rape plant response rating
  plant injury at 125 g/ha: 100%
Oilseed rape; Brassica napus, pre-emergence, Preemergence, 31 g ai/ha, scale 0 to 100, 0 no effect, 100 complete control, read-out: Plant response rating, Oilseed Rape
  plant injury at 31 g/ha: 85%
waterhemp; Amaranthus tuberculatus, pre-emergence, 16 g ai/ha, preemergence, scale 0 to 100 (0 no effect, 100 complete control), read-out: Waterhemp plant response rating
  pest or weed control at 16 g/ha: 85%
waterhemp; Amaranthus tuberculatus, pre-emergence, 62 g ai/ha, preemergence, scale 0 (no effect) to 100 (complete control), read-out: Waterhemp plant response rating
  pest or weed control at 62 g/ha: 100%
waterhemp; Amaranthus tuberculatus, pre-emergence, 125 g ai/ha, preemergence, scale 0 (no effect) to 100 (complete control), read-out: Waterhemp plant response rating
  pest or weed control at 125 g/ha: 100%
waterhemp; Amaranthus tuberculatus, pre-emergence, Preemergence, 31 g ai/ha, scale 0 to 100, 0 no effect, 100 complete control, read-out: Plant response rating, Waterhemp
  pest or weed control at 31 g/ha: 98%
Heteranthera limosa; Heteranthera limosa, read-out: Plant response rating, Ducksalad
  pest or weed control at 250 g/ha: 0%
Ragweed [1]; [5]
  Plant response rating, Ragweed: 0
  Ragweed plant response rating: 10
Giant foxtail [2]; Setaria faberi, pre-emergence, 16 g ai/ha, preemergence, scale 0 to 100 (0 no effect, 100 complete control), read-out: Foxtail, Giant plant response rating
  pest or weed control at 16 g/ha: 5%
Giant foxtail [2]; Setaria faberi, pre-emergence, 62 g ai/ha, preemergence, scale 0 (no effect) to 100 (complete control), read-out: Foxtail, Giant plant response rating
  pest or weed control at 62 g/ha: 70%
Giant foxtail [2]; Setaria faberi, pre-emergence, 125 g ai/ha, preemergence, scale 0 (no effect) to 100 (complete control), read-out: Foxtail, Giant plant response rating
  pest or weed control at 125 g/ha: 98%
Giant foxtail [2]; Setaria faberi, pre-emergence, Preemergence, 31 g ai/ha, scale 0 to 100, 0 no effect, 100 complete control, read-out: Plant response rating, Foxtail, Giant
  pest or weed control at 31 g/ha: 55%
galium; Galium, post-emergence, 16 g ai/ha, postemergence, 0 is no effect, 100 is complete control, read-out: Plant response rating (0 to 100), Galium
  pest or weed control at 16 g/ha: 50%
galium; Galium, post-emergence, 125 g ai/ha, postemergence, visual rating, scale 0 to 100 (0 no effect, 100 complete control), read-out: Plant response rating, Galium
  pest or weed control at 125 g/ha: 70%
galium; Galium, post-emergence, Postemergence, 62 g ai/ha, scale 0 to 100 (0 no effect, 100 complete control), read-out: Plant response rating, Galium
  pest or weed control at 62 g/ha: 65%
corn; Zea mays, pre-emergence, 16 g ai/ha, preemergence, scale 0 to 100 (0 no effect, 100 complete control), read-out: Corn plant response rating
  plant injury at 16 g/ha: 0%
corn; Zea mays, pre-emergence, 62 g ai/ha, preemergence, scale 0 (no effect) to 100 (complete control), read-out: Corn plant response rating
  plant injury at 62 g/ha: 20%
corn; Zea mays, pre-emergence, 125 g ai/ha, preemergence, scale 0 (no effect) to 100 (complete control), read-out: Corn plant response rating
  plant injury at 125 g/ha: 35%
corn; Zea mays, pre-emergence, Preemergence, 31 g ai/ha, scale 0 to 100, 0 no effect, 100 complete control
  Corn plant response rating (crop injury, 0 = no effect, 100 = complete kill) at 31 g/ha: 10%
Giant foxtail [3]; Setaria faberi, post-emergence, 240 h, 125 g ai/ha, read-out: Foxtail, Giant plant response rating
  pest or weed control at 125 g/ha: 60%
Giant foxtail [3]; Setaria faberi, post-emergence, 240 h, 500 g ai/ha, read-out: Plant response rating, Foxtail, Giant
  pest or weed control at 500 g/ha: 90%
johnsongrass; Sorghum halepense, post-emergence, 16 g ai/ha, postemergence, 0 is no effect, 100 is complete control, read-out: Plant response rating (0 to 100), Johnsongrass
  pest or weed control at 16 g/ha: 5%
johnsongrass; Sorghum halepense, post-emergence, 125 g ai/ha, postemergence, visual rating, scale 0 to 100 (0 no effect, 100 complete control), read-out: Plant response rating, Johnsongrass
  pest or weed control at 125 g/ha: 5%
johnsongrass; Sorghum halepense, post-emergence, Postemergence, 62 g ai/ha, scale 0 to 100 (0 no effect, 100 complete control), read-out: Plant response rating, Johnsongrass
  pest or weed control at 62 g/ha: 5%
Ragweed [4]; Ambrosia artemisiifolia, post-emergence, 16 g ai/ha, postemergence, 0 is no effect, 100 is complete control, read-out: Plant response rating (0 to 100), Ragweed
  pest or weed control at 16 g/ha: 0%
Ragweed [4]; Ambrosia artemisiifolia, post-emergence, 125 g ai/ha, postemergence, visual rating, scale 0 to 100 (0 no effect, 100 complete control), read-out: Plant response rating, Ragweed
  pest or weed control at 125 g/ha: 35%
Ragweed [4]; Ambrosia artemisiifolia, post-emergence, Postemergence, 62 g ai/ha, scale 0 to 100 (0 no effect, 100 complete control), read-out: Plant response rating, Ragweed
  pest or weed control at 62 g/ha: 10%

## CCOc1cnn(-c2c(C#N)cccc2Oc2ncc(F)cn2)c1 [Compound 89]
Oilseed rape; [6]
  Oilseed Rape plant response rating: 80
Oilseed rape; [7]
  Oilseed Rape plant response rating: 95
Oilseed rape; [8]
  Oilseed Rape plant response rating: 98
Oilseed rape; [9]
  Plant response rating, Oilseed Rape: 80
waterhemp; [6]
  Waterhemp plant response rating: 80
waterhemp; [7]
  Waterhemp plant response rating: 100
waterhemp; [8]
  Waterhemp plant response rating: 100
waterhemp; [9]
  Plant response rating, Waterhemp: 100
Heteranthera limosa
  Plant response rating, Ducksalad: 95
Ragweed [1]; [5]
  Plant response rating, Ragweed: 50
Ragweed [1]; [10]
  Ragweed plant response rating: 70
Giant foxtail [2]; [6]
  Foxtail, Giant plant response rating: 5
Giant foxtail [2]; [7]
  Foxtail, Giant plant response rating: 100
Giant foxtail [2]; [8]
  Foxtail, Giant plant response rating: 100
Giant foxtail [2]; [9]
  Plant response rating, Foxtail, Giant: 35
galium; [11]
  Galium plant response rating: 45
galium; 125 g ai/ha, postemergence
  Plant response rating (0 to 100), Galium: 55
galium; [12]
  Plant response rating, Galium: 40
galium; [13]
  Plant response rating, Galium: 50
corn; [6]
  Corn plant response rating: 0
corn; [7]
  Corn plant response rating: 0
corn; [8]
  Corn plant response rating: 5
corn; [9]
  Plant response rating, Corn: 0
Giant foxtail [3]; 125 g ai/ha
  Plant response rating, Foxtail, Giant: 80
Giant foxtail [3]; 500 g ai/ha
  Plant response rating, Foxtail, Giant: 90
johnsongrass; [11]
  Johnsongrass plant response rating: 0
johnsongrass; 125 g ai/ha, postemergence
  Plant response rating (0 to 100), Johnsongrass: 5
johnsongrass; [12]
  Plant response rating, Johnsongrass: 5
johnsongrass; [13]
  Plant response rating, Johnsongrass: 5
Ragweed [4]; 125 g ai/ha, postemergence
  Plant response rating (0 to 100), Ragweed: 70
Ragweed [4]; [12]
  Plant response rating, Ragweed: 40
Ragweed [4]; [13]
  Plant response rating, Ragweed: 60

## N#Cc1cccc(Oc2ncc(F)cn2)c1-n1cc(I)cn1 [Compound 86]
Oilseed rape; [6]
  Oilseed Rape plant response rating: 25
Oilseed rape; [7]
  Oilseed Rape plant response rating: 100
Oilseed rape; [8]
  Oilseed Rape plant response rating: 100
Oilseed rape; [9]
  Plant response rating, Oilseed Rape: 100
waterhemp; [6]
  Waterhemp plant response rating: 100
waterhemp; [7]
  Waterhemp plant response rating: 100
waterhemp; [8]
  Waterhemp plant response rating: 100
waterhemp; [9]
  Plant response rating, Waterhemp: 100
Heteranthera limosa
  Plant response rating, Ducksalad: 75
Ragweed [1]; [5]
  Plant response rating, Ragweed: 90
Ragweed [1]; [10]
  Ragweed plant response rating: 100
Giant foxtail [2]; [6]
  Foxtail, Giant plant response rating: 35
Giant foxtail [2]; [7]
  Foxtail, Giant plant response rating: 100
Giant foxtail [2]; [8]
  Foxtail, Giant plant response rating: 100
Giant foxtail [2]; [9]
  Plant response rating, Foxtail, Giant: 75
galium; [11]
  Galium plant response rating: 55
galium; 125 g ai/ha, postemergence
  Plant response rating (0 to 100), Galium: 80
galium; [12]
  Plant response rating, Galium: 60
galium; [13]
  Plant response rating, Galium: 80
corn; [6]
  Corn plant response rating: 0
corn; [7]
  Corn plant response rating: 30
corn; [8]
  Corn plant response rating: 80
corn; [9]
  Plant response rating, Corn: 25
Giant foxtail [3]; 125 g ai/ha
  Plant response rating, Foxtail, Giant: 90
Giant foxtail [3]; 500 g ai/ha
  Plant response rating, Foxtail, Giant: 100
johnsongrass; [11]
  Johnsongrass plant response rating: 0
johnsongrass; 125 g ai/ha, postemergence
  Plant response rating (0 to 100), Johnsongrass: 5
johnsongrass; [12]
  Plant response rating, Johnsongrass: 5
johnsongrass; [13]
  Plant response rating, Johnsongrass: 5
Ragweed [4]; 125 g ai/ha, postemergence
  Plant response rating (0 to 100), Ragweed: 85
Ragweed [4]; [12]
  Plant response rating, Ragweed: 50
Ragweed [4]; [13]
  Plant response rating, Ragweed: 55
